The text below walks through data of patent publication US11331369B2, “Endoparasitic depsipeptides” (Zoetis Services LLC, priority 2017, dated 2022).

In assay [1] the test system is 4th stage larvae (L4) of Dirofilaria immitis. The experiment in a line: Dirofilaria immitis, L4 Stage (DiL4) In Vitro Assay. It counts as cell-based. As to conditions: Dirofilaria immitis, 72 h, read-out: DiL4 Minimum Effective Dose (MED), approximately 72 hours incubation; L4 larvae assessed for survival or paralysis.
Assay [2] deals with microfilariae of Dirofilaria immitis. In words: Dirofilaria immitis, Microfilaria (DiMF) In vitro Assay. It counts as cell-based. As to conditions: 72 h, read-out: DiMF Minimum Effective Dose (MED), approximately 72 hours incubation, microfilariae assessed for survival or paralysis.

SMILES strings stand for the structures.

For `CCC#Cc1cnn(Cc2ccc(C[C@H]3OC(=O)[C@H](CC(C)C)N(C)C(=O)[C@@H](C)OC(=O)[C@H](CC(C)C)N(C)C(=O)[C@@H](Cc4ccccc4)OC(=O)[C@H](CC(C)C)N(C)C(=O)[C@@H](C)OC(=O)[C@H](CC(C)C)N(C)C3=O)cc2)c1` [Example 2-77, (3S,6R,9S,12R,15S,18R,21S,24R)-6-benzyl-18-(4-((4-(but-1-yn-1-yl)-1H-pyrazol-1-yl)methyl)benzyl)-3,9,15,21-tetraisobutyl-4,10,12,16,22,24-hexamethyl-1,7,13,19-tetraoxa-4,10,16,22-tetraazacyclotetracosan-2,5,8,11,14,17,20,23-octaone], the minimal effective concentration was 0.0001 to 0.001 µM in assay [1] and 0.001 to 0.01 µM in assay [2].

As to `CC(C)C#Cc1cnn(Cc2ccc(C[C@H]3OC(=O)[C@H](CC(C)C)N(C)C(=O)[C@@H](C)OC(=O)[C@H](CC(C)C)N(C)C(=O)[C@@H](Cc4ccc(Cn5cc(C#CC(C)C)cn5)cc4)OC(=O)[C@H](CC(C)C)N(C)C(=O)[C@@H](C)OC(=O)[C@H](CC(C)C)N(C)C3=O)cc2)c1` [Example 1b-112, (3S,6R,9S,12R,15S,18R,21S,24R)-3,9,15,21-tetraisobutyl-4,6,10,16,18,22-hexamethyl-12,24-bis(4-((4-(3-methylbut-1-yn-1-yl)-1H-pyrazol-1-yl)methyl)benzyl)-1,7,13,19-tetraoxa-4,10,16,22-tetraazacyclotetracosan-2,5,8,11,14,17,20,23-octaone], the minimal effective concentration in assay [1] lay in the range of 0.0001 to 0.001 µM; in assay [2] it was 0.01 to 0.1 µM.

For the compound `CCCc1ccnn1Cc1ccc(C[C@H]2OC(=O)[C@H](CC(C)C)N(C)C(=O)[C@@H](C)OC(=O)[C@H](CC(C)C)N(C)C(=O)[C@@H](Cc3ccc(Cn4nccc4CCC)cc3)OC(=O)[C@H](CC(C)C)N(C)C(=O)[C@@H](C)OC(=O)[C@H](CC(C)C)N(C)C2=O)cc1` [Example 1b-205, (3S,6R,9S,12R,15S,18R,21S,24R)-3,9,15,21-tetraisobutyl-4,6,10,16,18,22-hexamethyl-12,24-bis(4-((5-propyl-1H-pyrazol-1-yl)methyl)benzyl)-1,7,13,19-tetraoxa-4,10,16,22-tetraazacyclotetracosan-2,5,8,11,14,17,20,23-octaone], the minimal effective concentration was 0.0001 to 0.001 µM in assay [1] and 0.001 to 0.01 µM in assay [2].

As for `Cc1nn(Cc2ccc(C[C@H]3OC(=O)[C@H](CC(C)C)N(C)C(=O)[C@@H](C)OC(=O)[C@H](CC(C)C)N(C)C(=O)[C@@H](Cc4ccc(Cn5ncc(OC(C)C)c5C)cc4)OC(=O)[C@H](CC(C)C)N(C)C(=O)[C@@H](C)OC(=O)[C@H](CC(C)C)N(C)C3=O)cc2)cc1OC(C)C` [Example 1a-39, (3S,6R,9S,12R,15S,18R,21S,24R)-3,9,15,21-tetraisobutyl-6-[[4-[(4-isopropoxy-3-methyl-pyrazol-1-yl)methyl]phenyl]methyl]-18-[[4-[(4-isopropoxy-5-methyl-pyrazol-1-yl)methyl]phenyl]methyl]-4,10,12,16,22,24-hexamethyl-1,7,13,19-tetraoxa-4,10,16,22-tetrazacyclotetracosane-2,5,8,11,14,17,20,23-octaone], the figures for the minimal effective concentration in assay [1] and in assay [2] were 0.001 to 0.01 µM and 0.01 to 0.1 µM, respectively.

In the case of `Cc1cc(C2CC2)n(Cc2ccc(C[C@H]3OC(=O)[C@H](CC(C)C)N(C)C(=O)[C@@H](C)OC(=O)[C@H](CC(C)C)N(C)C(=O)[C@@H](Cc4ccc(Cn5nc(C)cc5C5CC5)cc4)OC(=O)[C@H](CC(C)C)N(C)C(=O)[C@@H](C)OC(=O)[C@H](CC(C)C)N(C)C3=O)cc2)n1` [Example 1b-181, (3S,6R,9S,12R,15S,18R,21S,24R)-6,18-bis(4-((5-cyclopropyl-3-methyl-1H-pyrazol-1-yl)methyl)benzyl)-3,9,15,21-tetraisobutyl-4,10,12,16,22,24-hexamethyl-1,7,13,19-tetraoxa-4,10,16,22-tetraazacyclotetracosan-2,5,8,11,14,17,20,23-octaone], the minimal effective concentration in assay [1] was in the range of 0.001 to 0.01 µM; in assay [2], 0.01 to 0.1 µM.

On to `CC(C)C[C@H]1C(=O)O[C@H](Cc2ccc(Cn3cc(OCC(F)(F)F)cn3)cc2)C(=O)N(C)[C@@H](CC(C)C)C(=O)O[C@H](C)C(=O)N(C)[C@@H](CC(C)C)C(=O)O[C@H](Cc2ccc(Cn3cc(OCC(F)(F)F)cn3)cc2)C(=O)N(C)[C@@H](CC(C)C)C(=O)O[C@H](C)C(=O)N1C` [Example 1b-150, (3S,6R,9S,12R,15S,18R,21S,24R)-3,9,15,21-tetraisobutyl-4,6,10,16,18,22-hexamethyl-12,24-bis(4-((4-(2,2,2-trifluoroethoxy)-1H-pyrazol-1-yl)methyl)benzyl)-1,7,13,19-tetraoxa-4,10,16,22-tetraazacyclotetracosan-2,5,8,11,14,17,20,23-octaone], for which the minimal effective concentration fell in the range of 0.0001 to 0.001 µM in assay [1] and 0.001 to 0.01 µM in assay [2].

Consider `CC(C)C[C@H]1C(=O)O[C@H](Cc2ccc(CN3CCOc4ncccc43)cc2)C(=O)N(C)[C@@H](CC(C)C)C(=O)O[C@H](C)C(=O)N(C)[C@@H](CC(C)C)C(=O)O[C@H](Cc2ccccc2)C(=O)N(C)[C@@H](CC(C)C)C(=O)O[C@H](C)C(=O)N1C` [Example 10-38, (3S,6R,9S,12R,15S,18R,21S,24R)-6-benzyl-18-[[4-(2,3-dihydropyrido[2,3-b][1,4]oxazin-1-ylmethyl)phenyl]methyl]-3,9,15,21-tetraisobutyl-4,10,12,16,22,24-hexamethyl-1,7,13,19-tetraoxa-4, 10,16,22-tetrazacyclotetracosane-2,5,8,11,14,17,20,23-octaone], for which the minimal effective concentration in assay [1] was in the range of 0.0001 to 0.001 µM; in assay [2], 0.001 to 0.01 µM.

On to `CC(C)C[C@H]1C(=O)O[C@H](Cc2ccc(CN3C(=O)CSc4cccnc43)cc2)C(=O)N(C)[C@@H](CC(C)C)C(=O)O[C@H](C)C(=O)N(C)[C@@H](CC(C)C)C(=O)O[C@H](Cc2ccc(CN3C(=O)CSc4cccnc43)cc2)C(=O)N(C)[C@@H](CC(C)C)C(=O)O[C@H](C)C(=O)N1C` [Example 9-61, (3S,6R,9S,12R,15S,18R,21S,24R)-3,9,15,21-tetraisobutyl-4,6,10,16,18,22-hexamethyl-12,24-bis[[4-[(3-oxopyrido[3,2-b][1,4]thiazin-4-yl)methyl]phenyl]methyl]-1,7,13,19-tetraoxa-4,10,16,22-tetrazacyclotetracosane-2,5,8,11,14,17,20,23-octaone], for which the values for the minimal effective concentration in assay [1] and in assay [2] were 0.001 to 0.01 µM and 0.01 to 0.1 µM, respectively.

`CC(C)C[C@H]1C(=O)O[C@H](Cc2cccc(Cn3ccnc3Br)c2)C(=O)N(C)[C@@H](CC(C)C)C(=O)O[C@H](C)C(=O)N(C)[C@@H](CC(C)C)C(=O)O[C@H](Cc2ccc(Cn3ccnc3Br)cc2)C(=O)N(C)[C@@H](CC(C)C)C(=O)O[C@H](C)C(=O)N1C` [Example 7-3, (3S,6R,9S,12R,15S,18R,21S,24R)-6-[[3-[(2-bromoimidazol-1-yl)methyl]phenyl]methyl]-18-[[4-[(2-bromoimidazol-1-yl)methyl]phenyl]methyl]-3,9,15,21-tetraisobutyl-4,10,12,16,22,24-hexamethyl-1,7,13,19-tetraoxa-4,10,16,22-tetrazacyclotetracosane-2,5,8,11,14,17,20,23-octaone]: the minimal effective concentration in assay [1] lay within 0.0001 to 0.001 µM; in assay [2] it was 0.001 to 0.01 µM.
